# According to US12068729B2, “Anti-factor XII/XIIa antibodies and uses thereof” (Regeneron Pharmaceuticals, Inc., priority 2018, dated 2024):
# Key:
# [1] = test system: Extrinsic and Common pathways of the coagulation cascade; experiment: Prothrombin Time (PT) in pooled normal human plasma; type: biochemical
# Text: (§1) This Example describes the inhibitory activity of selected antibodies, as determined by four functional plasma assays: 1) Activated Partial Thromboplastin Time (aPTT), 2) Prothrombin Time (PT), 3) Thrombin Generation Assay (TGA) triggered by ellagic acid and 4) TGA triggered by Tissue Factor. The aPTT test evaluates all clotting factors of the Intrinsic and Common pathways of the coagulation cascade by measuring time for a clot to form after the addition of calcium and ellagic acid, whereas the PT test evaluates all clotting factors of the Extrinsic and Common pathways of the coagulation cascade after the addition of calcium and Tissue Factor. The TGA triggered by ellagic acid measures the rate and amount of thrombin generated via the Intrinsic and Common pathways whereas TGA triggered by Tissue Factor measures the rate and amount of thrombin generated via the Extrinsic and Common pathways.
# (§2) The PT was determined on Diagnostica Stago STart4 Hemostasis Analyzer in the following manner. A total of 50 ul of pooled normal human plasma was added to a cuvette at 37° C. […] The measured clot time for the test article concentration was normalized to baseline (no drug) plasma clot time and plotted against log molar concentration of the test article. The results were analyzed using nonlinear regression (4-parameter logistics) with Prism 5 software (GraphPad) to obtain doubling time concentration.
# [2] = test system: Intrinsic and Common pathways of the coagulation cascade; experiment: Activated Partial Thromboplastin Time (aPTT) in pooled normal human plasma; type: biochemical
# Text: as §1, with “The TGA triggered by ellagic acid measures the rate and amount of thrombin generated via the Intrinsic and Common pathways whereas TGA triggered by Tissue Factor measures the rate and amount of thrombin generated via the Extrinsic and Common pathways.” left out
# as §2, with “aPTT” for “PT”, “manner:” for “manner.”
# [3] = test system: thrombin generated via the Intrinsic and Common pathways; experiment: Thrombin Generation Assay (TGA) triggered by ellagic acid; type: biochemical, human; settings: for Concentration required for ↑ lag time by 2× / Concentration required for ↓ endogenous thrombin potential by ½ / Concentration required for ↓ thrombin peak by ½: Intrinsic Pathway Activation with Ellagic Acid
# Text: as §1
# (§3) The thrombin generation profile was determined in a Thermo Scientific Hemker Thrombinoscope in the following manner: A total of 55 ul of pooled normal human plasma was added to a well of a microplate at 37° C. Then 5 ul of a 2× serially diluted test article (antibody or small molecule inhibitor) in PBS was added to the well of the microplate and allowed to incubate for 30 min. 15 ul of APPT-XL Ellagic Acid (Thermo Scientific) was diluted in MP reagent then added to the well and allowed to incubate for 45 min. Then 15 ul of Fluo Flu Cal substrate (Diagnostica Stago) was added immediately before a continuous 90 min reading of the microplate. The measured real-time thrombin concentration values were plotted against time to yield a thrombogram profile for each concentration of the test article used.
# [4] = test system: thrombin generated via the Extrinsic and Common pathways; experiment: Thrombin Generation Assay (TGA) triggered by Tissue Factor; type: biochemical, human
# Text: as §1
# as §3, with “Tissue Factor PPP Reagent (Diagnostica Stago)” for “APPT-XL Ellagic Acid (Thermo Scientific)”, “was” for “was diluted in MP reagent then”
# [5] = conc. of drug required to increase clotting time by 2-fold over baseline
# [6] = dose response curves, pooled normal human plasma
# [7] = Extrinsic Pathway Activation with Tissue Factor
smiles,measurement,setting,value
"COc1ccc(-n2nc(C(N)=O)c3c2C(=O)N(c2ccc(N4CCCCC4=O)cc2)CC3)cc1 [Apixaban, reference compound]",C2xt of Prothrombin Time (PT) - Extrinsic Pathway,[1]; [5],3.5 µM
same,effect on plasma PT (in words),[1]; [6],prolonged both aPTT and PT with uM concentrations
same,C2xt of activated Partial Thromboplastin Time (aPTT) - Intrinsic Pathway,[2]; [5],7 µM
same,effect on plasma aPTT (in words),[2]; [6],prolonged both aPTT and PT with uM concentrations
same,Concentration required for ↑ lag time by 2×,[3],> 500 nM
same,Concentration required for ↓ endogenous thrombin potential by ½,[3],> 500 nM
same,Concentration required for ↓ thrombin peak by ½,[3],> 500 nM
same,Concentration required for ↑ lag time by 2×,"[3]; dash cells, dose up to 500 nM",— (no effect on thrombin generation with a dose up to 500 nM)
same,Concentration required for ↓ endogenous thrombin potential by ½,"[3]; dash cells, dose up to 500 nM",— (no effect on thrombin generation with a dose up to 500 nM)
same,Concentration required for ↓ thrombin peak by ½,"[3]; dash cells, dose up to 500 nM",— (no effect on thrombin generation with a dose up to 500 nM)
same,effect on thrombin generation (in words),[3]; plasma triggered by ellagic acid,dose dependent reduction in thrombin generation
same,Concentration required for ↑ lag time by 2×,[4]; [7],250 nM
same,Concentration required for ↓ endogenous thrombin potential by ½,[4]; [7],250 nM
same,Concentration required for ↓ thrombin peak by ½,[4]; [7],62.5 nM
same,effect on thrombin generation (in words),[4]; plasma triggered by Tissue Factor,dose dependently inhibited thrombin generation
